From patent publication US8648066B2 (Exelixis, Inc., priority 2009, dated 2014)

The compounds below were run against mTOR/GbL/Raptor (mTORC1) (Homo sapiens, UniProt P42345) (assay: mTOR/GbL/Raptor (mTORC1) ELISA assay). Conditions: phosphorylation of 4E-BP1; 0.2 nM mTORC1, 10 μM ATP; read-out: IC50 in this assay (mTORC1 ELISA).
Format: biochemical
Method in brief: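 Human mTORC1 (0.2 nM) phosphorylated 50 nM His-tagged 4E-BP1 with 10 µM ATP in HEPES pH 7.2 containing 10 mM MnCl2, 120 min at ambient temperature. Substrate was captured on Ni-chelate plates; phospho-4E-BP1 was detected by primary antibody and HRP secondary with luminescence.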

Compound	IC50
CC1(C)CCc2ncnc(N3CCOc4ccc(-c5cnc(C(N)=O)c(N)c5)cc4C3)c2C1 [Example 457, 3-amino-5-[4-(6,6-dimethyl-5,6,7,8-tetrahydroquinazolin-4-yl)-2,3,4,5-tetrahydro-1,4-benzoxazepin-7-yl]pyridine-2-carboxamide]	50 to 250 nM
CC(C)(O)CC[S+]([O-])c1cc(-c2ccc3c(c2)CN(c2ncnc4c2CC(C)(C)CC4)CCO3)cnc1N (stereo not shown) [Example 458, 4-({2-amino-5-[4-(6,6-dimethyl-5,6,7,8-tetrahydroquinazolin-4-yl)-2,3,4,5-tetrahydro-1,4-benzoxazepin-7-yl]pyridin-3-yl}sulfinyl)-2-methylbutan-2-ol]	50 to 250 nM
Cc1nc2ccc(-c3ccc4c(c3)CN(c3nc(CN5CC[C@@H](F)C5)nc5c3CC(C)(C)CC5)CCO4)cc2[nH]1 [Example 461]	50 to 250 nM
Cc1nc2ncc(-c3ccc4c(c3)CN(c3nc(CN5CC[C@@H](F)C5)nc5c3CC(C)(C)CC5)CCO4)cc2[nH]1 [Example 462]	10 to 50 nM
Cc1nc2ccc(-c3ccc4c(c3)CN(c3nc(CN5CC[C@H](F)C5)nc5c3CC(C)(C)CC5)CCO4)cc2[nH]1 [Example 463, 4-(2-{[(3S)-3-fluoropyrrolidin-1-yl]methyl}-6,6-dimethyl-5,6,7,8-tetrahydroquinazolin-4-yl)-7-(2-methyl-1H-benzimidazol-6-yl)-2,3,4,5-tetrahydro-1,4-benzoxazepine]	50 to 250 nM
Cc1nc2ncc(-c3ccc4c(c3)CN(c3nc(CN5CC[C@H](F)C5)nc5c3CC(C)(C)CC5)CCO4)cc2[nH]1 [Example 464, 4-(2-{[(3S)-3-fluoropyrrolidin-1-yl]methyl}-6,6-dimethyl-5,6,7,8-tetrahydroquinazolin-4-yl)-7-(2-methyl-1H-imidazo[4,5-b]pyridin-6-yl)-2,3,4,5-tetrahydro-1,4-benzoxazepine]	10 to 50 nM
C=Cc1nc2c(c(N3CCOc4ccc(-c5cnc6[nH]c(C)nc6c5)cc4C3)n1)CC(C)(C)CC2 [Example 465, 4-(2-ethenyl-6,6-dimethyl-5,6,7,8-tetrahydroquinazolin-4-yl)-7-(2-methyl-3H-imidazo[4,5-b]pyridin-6-yl)-2,3,4,5-tetrahydro-1,4-benzoxazepine]	10 to 50 nM
CNC(=O)c1ccc(-c2ccc3c(c2)CN(c2nc(CN(C)C)nc4c2CC(C)(C)CC4)CCO3)cc1 [Example 466, 4-(4-{2-[(dimethylamino)methyl]-6,6-dimethyl-5,6,7,8-tetrahydroquinazolin-4-yl}-2,3,4,5-tetrahydro-1,4-benzoxazepin-7-yl)-N-methylbenzamide]	50 to 250 nM
CCc1c(C)nc(C)nc1N1CCOc2ccc(-c3cnc4nc(C)[nH]c4c3)cc2C1 [Example 469, 4-(5-ethyl-2,6-dimethylpyrimidin-4-yl)-7-(2-methyl-1H-imidazo[4,5-b]pyridin-6-yl)-2,3,4,5-tetrahydro-1,4-benzoxazepine]	50 to 250 nM
Cc1nc2ccc(-c3ccc4c(c3)CN(c3nc(-c5ccccn5)nc5c3CC(C)(C)CC5)CCO4)cc2[nH]1 [Example 472, 4-(6,6-dimethyl-2-pyridin-2-yl-5,6,7,8-tetrahydroquinazolin-4-yl)-7-(2-methyl-1H-benzimidazol-6-yl)-2,3,4,5-tetrahydro-1,4-benzoxazepine]	50 to 250 nM
Cc1nc2ncc(-c3ccc4c(c3)CN(c3nc(-c5ccccn5)nc5c3CC(C)(C)CC5)CCO4)cc2[nH]1 [Example 473, 4-(6,6-dimethyl-2-pyridin-2-yl-5,6,7,8-tetrahydroquinazolin-4-yl)-7-(2-methyl-1H-imidazo[4,5-b]pyridin-6-yl)-2,3,4,5-tetrahydro-1,4-benzoxazepine]	10 to 50 nM
COc1cncc(-c2ccc3c(c2)CN(c2ncnc4c2CC(C)(C)CC4)CCO3)c1 [Example 476, 4-(6,6-dimethyl-5,6,7,8-tetrahydroquinazolin-4-yl)-7-[5-(methyloxy)pyridin-3-yl]-2,3,4,5-tetrahydro-1,4-benzoxazepine]	250 to 1000 nM
CC1(C)CCc2ncnc(N3CCOc4ccc(-c5cnc6nccnc6c5)cc4C3)c2C1 [Example 477, 4-(6,6-dimethyl-5,6,7,8-tetrahydroquinazolin-4-yl)-7-pyrido[2,3-b]pyrazin-7-yl-2,3,4,5-tetrahydro-1,4-benzoxazepine]	250 to 1000 nM
Cc1nc2ncc(-c3ccc4c(c3)CN(c3ncnc5c3CC(C)(C)C=C5)CCO4)cc2[nH]1 [Example 478, 4-(6,6-dimethyl-5,6-dihydroquinazolin-4-yl)-7-(2-methyl-1H-imidazo[4,5-b]pyridin-6-yl)-2,3,4,5-tetrahydro-1,4-benzoxazepine]	≤ 10 nM
CC1(C)C=Cc2ncnc(N3CCOc4ccc(-c5ccc(-c6ncc[nH]6)cc5)cc4C3)c2C1 [Example 479, 4-(6,6-dimethyl-5,6-dihydroquinazolin-4-yl)-7-[4-(1H-imidazo-2-yl)phenyl]-2,3,4,5-tetrahydro-1,4-benzoxazepine]	≤ 10 nM
Cc1nc2ncc(-c3ccc4c(c3)CN(c3ncnc(N5CCC5)c3C)CCO4)cc2[nH]1 [Example 480, 4-(6-azetidin-1-yl-5-methylpyrimidin-4-yl)-7-(2-methyl-1H-imidazo[4,5-b]pyridin-6-yl)-2,3,4,5-tetrahydro-1,4-benzoxazepine]	250 to 1000 nM
Cc1nc(C)c(C(C)C)c(N2CCOc3ccc(-c4cnc5nc(C)[nH]c5c4)cc3C2)n1 [Example 491, 4-[2,6-dimethyl-5-(1-methylethyl)pyrimidin-4-yl]-7-(2-methyl-1H-imidazo[4,5-b]pyridin-6-yl)-2,3,4,5-tetrahydro-1,4-benzoxazepine]	≤ 10 nM

Next, values leading:

IC50	Compound
10 to 50 nM	Cc1nc2c(c(N3CCOc4ccc(-c5cnc6nc(C)[nH]c6c5)cc4C3)n1)CC(C)CC2 (stereo not shown) [Example 460, 4-(2,6-dimethyl-5,6,7,8-tetrahydroquinazolin-4-yl)-7-(2-methyl-1H-imidazo[4,5-b]pyridin-6-yl)-2,3,4,5-tetrahydro-1,4-benzoxazepine]
50 to 250 nM	Cc1nc2ncc(-c3ccc4c(c3)CN(c3ncnc(C)c3Br)CCO4)cc2[nH]1 [Example 468, 4-(5-bromo-6-methylpyrimidin-4-yl)-7-(2-methyl-1H-imidazao[4,5-b]pyridin-6-yl)-2,3,4,5-tetrahydro-1,4-benzoxazepine]
50 to 250 nM	CCc1c(C)ncnc1N1CCOc2ccc(-c3cnc4nc(C)[nH]c4c3)cc2C1 [Example 470, 4-(5-ethyl-6-methylpyrimidin-4-yl)-7-(2-methyl-1H-imidazo[4,5-b]pyridin-6-yl)-2,3,4,5-tetrahydro-1,4-benzoxazepine]
50 to 250 nM	Cc1nc2ncc(-c3ccc4c(c3)CN(c3ncnc5c3CC(F)(F)CC5)CCO4)cc2[nH]1 [Example 471, 4-(6,6-difluoro-5,6,7,8-tetrahydcroquinazolin-4-yl)-7-(2-methyl-1H-imidazo[4,5-b]pyridin-6-yl)-2,3,4,5-tetrahydro-1,4-benzoxazepine]
50 to 250 nM	Cc1nc2ncc(-c3ccc4c(c3)CN(c3ncnc(Cl)c3C)CCO4)cc2[nH]1 [Example 481, 4-(6-chloro-5-methylpyrimidin-4-yl)-7-(2-methyl-1H-imidazo[4,5-b]pyridin-6-yl)-2,3,4,5-tetrahydro-1,4-benzoxazepine]
10 to 50 nM	CCC1CCc2nc(C)nc(N3CCOc4ccc(-c5cnc6nc(C)[nH]c6c5)cc4C3)c2C1 (stereo not shown) [Example 482, 4-(6-ethyl-2-methyl-5,6,7,8-tetrahydroquinazolin-4-yl)-7-(2-methyl-1H-imidazo[4,5-b]pyridin-6-yl)-2,3,4,5-tetrahydro-1,4-benzoxazepine]
≤ 10 nM	CCC1CCc2ncnc(N3CCOc4ccc(-c5cnc6nc(C)[nH]c6c5)cc4C3)c2C1 (stereo not shown) [Example 483, 4-(6-ethyl-5,6,7,8-tetrahydroquinazolin-4-yl)-7-(2-methyl-1H-imidaz[4,5-b]pyridin-6-yl)-2,3,4,5-tetrahydro-1,4-benzoxazepine]
≤ 10 nM	Cc1nc2ncc(-c3ccc4c(c3)CN(c3ncnc5c3CCC(C)(C)C5)CCO4)cc2[nH]1 [Example 484, 4-(7,7-dimethyl-5,6,7,8-tetrahydroquinazolin-4-yl)-7-(2-methyl-1H-imidazo[4,5-b]pyridin-6-yl)-2,3,4,5-tetrahydro-1,4-benzoxazepine]
10 to 50 nM	Cc1nc2ncc(-c3ccc4c(c3)CN(c3ncnc5c3CCCC5(C)C)CCO4)cc2[nH]1 [Example 485, 4-(8,8-dimethyl-5,6,7,8-tetrahydroquinazolin-4-yl)-7-(2-methyl-1H-imidazo[4,5-b]pyridin-6-yl)-2,3,4,5-tetrahydro-1,4-benzoxazepine]
≤ 10 nM	Cc1nc2ncc(-c3ccc4c(c3)CN(c3ncnc5c3C[C@H](C)[C@@H](C)C5)CCO4)cc2[nH]1 [Example 486, 4-[(6S,7S)-6,7-dimethyl-5,6,7,8-tetrahydroquinazolin-4-yl]-7-(2-methyl-1H-imidazo[4,5-b]pyridin-6-yl)-2,3,4,5-tetrahydro-1,4-benzoxazepine]
10 to 50 nM	CC[C@H]1CCc2c(nc(C)nc2N2CCOc3ccc(-c4cnc5nc(C)[nH]c5c4)cc3C2)C1 [Example 487, 4-[(7S)-7-ethyl-2-methyl-5,6,7,8-tetrahydroquinazolin-4-yl]-7-(2-methyl-1H-imidazo[4,5-b]pyridin-6-yl)-2,3,4,5-tetrahydro-1,4-benzoxazepine]
≤ 10 nM	CC[C@H]1CCc2c(ncnc2N2CCOc3ccc(-c4cnc5nc(C)[nH]c5c4)cc3C2)C1 [Example 488, 4-[(7S)-7-ethyl-5,6,7,8-tetrahydroquinazolin-4-yl]-7-(2-methyl-1H-imidazo[4,5-b]pyridin-6-yl)-2,3,4,5-tetrahydro-1,4-benzoxazepine]
≤ 10 nM	C=C[C@H]1CCCc2c(ncnc2N2CCOc3ccc(-c4cnc5nc(C)[nH]c5c4)cc3C2)C1 [Example 489, 4-[(8S)-8-ethenyl-6,7,8,9-tetrahydro-5H-cyclohept[d]pyrimidin-4-yl]-7-(2-methyl-1H-imidazo[4,5-b]pyridin-6-yl)-2,3,4,5-tetrahydro-1,4-benzoxazepine]
≤ 10 nM	CC[C@H]1CCCc2c(ncnc2N2CCOc3ccc(-c4cnc5nc(C)[nH]c5c4)cc3C2)C1 [Example 490]
